The numbers were not newly measured in US12678402B2 (Nasus Pharma Ltd., priority 2020, dated 2026), which cites them from elsewhere.

Like-named read-outs stand apart in the source and are kept apart here.

For data set [1] the following is noted: IN 1 mg up to 12 mg, different indications and formulations.
The subject of a further data set is nasal epithelia. The settings on record: in vitro; dissolves in nasal fluid.

As to `CNC[C@H](O)c1ccc(O)c(O)c1` [Epinephrine], where the note is “0.3 mg IM”, the “Cbaseline Mean (±SD)” value is recorded as 35 ± 23 pg/mL and the Tmax (usually the time at which the peak concentration occurs) was 1.12 ± 0.717 h. Moreover, for the setting “5 mg IN”, the “Cbaseline Mean (±SD)” value is 8 ± 6 pg/mL. In addition, the adverse events observed entry (IN epinephrine in saline formulation, healthy adults) was “transient tremor was observed in one subject and palpitation in two subjects”. For the same molecule, the “heart rate and blood pressure changes” value (IN epinephrine in saline formulation, healthy adults, at Tmax) was “Increase in heart rate, and diastolic and systolic blood pressures occurred at Tmax. in most subjects”. For the same molecule, the serious adverse effects result (after IN epinephrine administration, healthy adults) was “No serious adverse effects were observed”. Further, the serious adverse events entry in data set [1] is “no serious adverse events”. For the same molecule, the “absorption after deposition of the powder in the nasal cavity” value in the data set with nasal epithelia is “rapidly absorbed through the nasal epithelia”.
